According to US6060475A, “Substituted pyrazin-2-yl-sulphonamide-(3-pyridyl) compounds and uses thereof” (Zeneca Limited, priority 1995, dated 2000):

Columns and labels:
[1] = test system: Human ETA or ETB receptors; assay: Test A: inhibition of [125I]-Endothelin-1 binding to MEL cell membranes expressing recombinant receptor; conditions: receptor sub-type (ETA or ETB) not given
Text: Test A: The endothelin receptor antagonist activity of compounds of formula I may be assessed in vitro by their ability to inhibit binding of [^125 I]-Endothelin-1 to its receptors. Human ETA or ETB receptors (sub-types of the endothelin receptor) were expressed in Mouse Erythroleukemic Cells (MEL cells) by using standard molecular techniques (for example, as described by Sambrook J., Fritsch E. F. & Maniatis T. (1989) Molecular Cloning: A Laboratory Manual, 2nd Edition, Cold Spring Harbor Press, USA). cDNA sequences encoding the human ETA and ETB receptor (Hosoda K. et al (1991), FEBS Lett., 287, 23-26 and Sakamoto A. et al, (1991), Biochem. Biophys Res. Comm., 178, 656-663) are subcloned into pBluescript vector followed by insertion into the MEL cell expression vector pEV as described by Needham et al (1992), Nuc. Acids Res., 20, 997-1003. […]
[^125 I]-Endothelin-1 binding to MEL cell membranes was measured in incubation buffer containing 50 mM Tris HCl 1 mM CaCl2, 0.05% polyoxyethylenesorbitan monolaurate, 0.1% Bovine Serum Albumin (BSA), 0.02% sodium azide pH 7.4 at 30° C. after 180 minutes incubation. […] Nonspecific binding was measured in the presence of 100 nM unlabelled Endothelin-1. […] The filter discs were punched out and counted in a gamma counter. Compounds are tested in triplicate over a range of concentrations and IC50 (or pIC50) values calculated.

[2] = test system: pressor response induced by intravenously-administered proendothelin-1; assay: Test D: antagonism of pressor response to intravenous proendothelin-1 in conscious rat after oral dosing; format: in vivo; conditions: rats, dosed orally at 3 mg/kg, determined one hour after administration, n=5, 30 mmHg change level
Text: Test D: This in vivo test involves the measurement of the antagonist effect of the test compound against the pressor response induced by intravenously-administered proendothelin-1 in a conscious rat preparation.
Male rats (260-290 g) are anaesthetised with Saffan administered via the tail vein. The right jugular vein and carotid artery are isolated and catheters filled with heparin implanted. These are exteriorised at the back of the neck using a metal trochar and the neck incision closed with autoclips. Rats are housed individually with free access to food and water during the recovery phase. Later in the day, food is removed and the rats are fasted overnight with free access to water. The following day the rats are placed in perspex restraining tubes and the arterial catheter drained and connected to a pressure transducer for measurement of mean arterial pressure. Following a ten minute stabilization period, proendothelin-1 (usually 0.3-1.0 nmol kg^-1) is administered cumulatively until a pressor response of 30 mmHg is achieved. The animals are then returned to their cages and allowed to recover for 2 hours. The test compound is administered orally (by gavage) at a known time point during the recovery period. […] Endothelin receptor antagonism is quantified by calculating dose ratio shifts at the 30 mmHg change level.

Compound: COc1nc(C)cnc1NS(=O)(=O)c1cccnc1-c1ccc(OC(C)C)cc1 [Example 3, 2-(4-isopropoxyphenyl)-N-(3-methoxy-5-methylpyrazin-2-yl)pyridine-3-sulphonamide]
- pIC50 in Test A [1]: 8.6
- mean dose ratio shift on the pressor response to proendothelin-1 [2]: 2.93
